This note sets out measurements from patent publication US20230303540A1 (Merck Sharp & Dohme LLC, priority 2020, published 2023).

For the experiment, the target named is GST-tagged truncated human mutant G2019S LRRK2 (Homo sapiens, UniProt Q5S007, G2019S). The experiment can be described thus: LRRK2 G2019S Km ATP LanthaScreen assay. The format is biochemical. The note with it: 134 μM ATP (Km ATP), LRRKtide substrate, mean IC50 values; read-out: LRRK2 pIC50 (converted). The method, boiled down:
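Compound preincubated 15 min at room temperature with enzyme in pH 8.5 Tris buffer (10 mM MgCl2). Then a 90 min reaction at ambient temperature with 134 μM (Km) ATP and fluorescein-LRRKtide. EDTA stop, Tb anti-phospho antibody TR-FRET; […]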
As for `Cc1cc(Nc2ncc3ccc(N4C(=O)OC[C@@H]4C)cc3n2)n(C)n1` [Ex-8.1, (4S)-3-{2-[(1,3-dimethyl-1H-pyrazol-5-yl)amino]quinazolin-7-yl}-4-methyl-1,3-oxazolidin-2-one], the IC50 is 4.41 nM.

Regarding `C[C@H]1COC(=O)N1c1ccc2cnc(Nc3cnsc3)nc2c1` [Ex-8.7, (4S)-4-methyl-3-{2-[(1,2-thiazol-4-yl)amino]quinazolin-7-yl}-1,3-oxazolidin-2-one], the IC50 was 5.2 nM.

With `C[C@H]1COC(=O)N1c1ccc2cnc(Nc3ccns3)nc2c1` [Ex-8.8, (4S)-4-methyl-3-{2-[(1,2-thiazol-5-yl)amino]quinazolin-7-yl}-1,3-oxazolidin-2-one], the IC50 is 5.08 nM.

Regarding `CC(C)c1cc(Nc2ncc3ccc(N4C(=O)OC[C@@H]4C)cc3n2)ns1` [Ex-8.9, (4S)-4-methyl-3-(2-{[5-(propan-2-yl)-1,2-thiazol-3-yl]amino}quinazolin-7-yl)-1,3-oxazolidin-2-one], the IC50 was 8.03 nM.

In the case of `C[C@H]1COC(=O)N1c1ccc2cnc(Nc3cc(C(C)(C)C)ns3)nc2c1` [Ex-8.10, (4S)-3-{2-[(3-tert-butyl-1,2-thiazol-5-yl)amino]quinazolin-7-yl}-4-methyl-1,3-oxazolidin-2-one], the IC50 is 0.625 nM.

Regarding `C[C@@H]1CN(C2COC2)CC[C@@H]1n1ncc(Nc2ncc3ccc(N4C(=O)OC[C@@H]4C)cc3n2)c1Cl` [Ex-8.11, (4.5)-3-[2-({5-chloro-1-[(3R,4S)-3-methyl-1-(oxetan-3-yl)piperidin-4-yl]-1H-pyrazol-4-yl}amino)quinazolin-7-yl]-4-methyl-1,3-oxazolidin-2-one], the IC50 was 1.59 nM.

For the molecule `C[C@H]1COC(=O)N1c1ccc2cnc(Nc3cn(C)nc3C(F)F)nc2c1` [Ex-8.12, (4S)-3-(2-{[3-(difluoromethyl)-1-methyl-1H-pyrazol-4-yl]amino}quinazolin-7-yl)-4-methyl-1,3-oxazolidin-2-one], the IC50 was 1.63 nM.

On to `C[C@H]1COC(=O)N1c1ccc2cnc(Nc3cnn4c3CCCC4)nc2c1` [Ex-8.13, (4S)-4-methyl-3-{2-[(4,5,6,7-tetrahydropyrazolo[1,5-a]pyridin-3-yl)amino]quinazolin-7-yl}-1,3-oxazolidin-2-one], for which the IC50 is 0.625 nM.

On to `Cc1nsc(Nc2ncc3ccc(N4C(=O)C5CCC4C5)cc3n2)c1C` (stereo not shown) [Ex-8.14, 2-{2-[(3,4-dimethyl-1,2-thiazol-5-yl)amino]quinazolin-7-yl}-2-azabicyclo[2.2.1]heptan-3-one], for which the IC50 was 7.79 nM.

For the molecule `Cc1nsc(Nc2ncc3ccc(N4C(=O)C5CCC4C5)cc3n2)c1C` (stereo not shown) [Ex-8.15, 2-{2-[(3,4-dimethyl-1,2-thiazol-5-yl)amino]quinazolin-7-yl}-2-azabicyclo[2.2.1]heptan-3-one], the IC50 is 2.59 nM.

Turning to `C[C@H]1COC(=O)N1c1ccc2cnc(Nc3cn(C4CCCCC4)nc3Cl)nc2c1` [Ex-10.1, (S)-3-(2-((3-Chloro-1-cyclohexyl-1H-pyrazol-4-yl)amino)quinazolin-7-yl)-4-methyloxazolidin-2-one], the IC50 was 7.01 nM.

As for `CN1CCN(c2cc3nc(Nc4cnn(C)c4Cl)ncc3cc2Cl)CC1` [Ex-11.1, 6-Chloro-N-(5-chloro-1-methyl-1H-pyrazol-4-yl)-7-(4-methylpiperazin-1-yl)quinazolin-2-amine], the IC50 was 11.7 nM.

As to `CC1(N2CCN(c3cc4nc(Nc5cnn(C6(C)CC6)c5Cl)ncc4cc3Cl)CC2)CCOC1` (stereo not shown) [Ex-12.4], the IC50 is 3.04 nM.

`Clc1cc2cnc(Nc3cnn(C45CC(C4)C5)c3Cl)nc2cc1N1CCNCC1` [Ex-12.10, N-(1-(bicyclo[1.1.1]pentan-1-yl)-5-chloro-1H-pyrazol-4-yl)-6-chloro-7-(piperazin-1-yl)quinazolin-2-amine]: the IC50 is 2.13 nM.

As to `[2H]C([2H])([2H])n1nc(C(C)(C)n2nccn2)cc1Nc1ncc2cc(Cl)c(N3CCC(C)(O)CC3)cc2n1` [Ex-14.1, 1-(2-((3-(2-(2H-1,2,3-Triazol-2-yl)propan-2-yl)-1-(methyl-d3)-1H-pyrazol-5-yl)amino)-6-chloroquinazolin-7-yl)-4-methylpiperidin-4-ol], the IC50 is 4.11 nM.

`CC(C)(O)Cn1ncc(Nc2ncc3cc(Br)c(NCC4CC4)nc3n2)c1Cl` [Ex-15.1, 1-[4-({6-Bromo-7-[(cyclopropylmethyl)amino]pyrido[2,3-d]pyrimidin-2-yl}amino)-5-chloro-1H-pyrazol-1-yl]-2-methylpropan-2-ol]: the IC50 is 36.7 nM.

`CC1(N2CCN(c3nc4nc(Nc5cnn(CC(F)F)c5Cl)ncc4cc3Cl)CC2)COC1` [Ex-15.2, 6-chloro-N-[5-chloro-1-(2,2-difluoroethyl)-1H-pyrazol-4-yl]-7-[4-(3-methyloxetan-3-yl)piperazin-1-yl]pyrido[2,3-d]pyrimidin-2-amine]: the IC50 was 60.8 nM.

For `Cc1c(Nc2ncc3cc(F)c(NCC4CC4)nc3n2)cnn1C1CCOCC1` [Ex-15.5, N-7-(cyclopropylmethyl)-6-fluoro-N-2-[5-methyl-1-(oxan-4-yl)-1H-pyrazol-4-yl]pyrido[2,3-d]pyrimidine-2,7-diamine], the IC50 was 32.6 nM.

`FC(F)(F)C1(n2ncc(Nc3ncc4cc(Cl)c(N5CCN(C6COC6)CC5)cc4n3)c2Cl)CC1` [Ex.3.23, 6-chloro-N-{5-chloro-1-[1-(trifluoromethyl)cyclopropyl]-1H-pyrazol-4-yl}-7-[4-(oxetan-3-yl)piperazin-1-yl]quinazolin-2-amine]: the IC50 is 3.45 nM.
